The values below come from PubChem BioAssay (NCI).

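Briefly, cells in 96-well plates were exposed to five compound concentrations for 48 h, and endpoints were estimated by linear interpolation. TGI denotes the concentration required for complete inhibition of growth.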 Bounds are passed on as bounds.

Holding throughout (assay): NCI anticancer screen, dose series, 48 h
In assay [1] the test system is SK-OV-3 ovarian.
For assay [2], the system named is SNB-75 CNS.
Assay [3] deals with UO-31 renal.
The subject of assay [4] is NCI-H522 lung.
Assay [5] relates to OVCAR-5 ovarian.
The subject of assay [6] is ACHN renal.
The test system of assay [7] is SK-MEL-2 melanoma.
In assay [8] the test system is TK-10 renal.
Assay [9] deals with A549 NSCLC.
In assay [10] the test system is HT29 colon.

Take `CC1(C)C2CC(=O)C1(C)C(OCc1ccccc1)C2` (stereo not given): the TGI in assay [1] is above 100 µM; in assay [2], above 100 µM; in [3], above 100 µM; in assay [4], 52.5 µM; in [5] it was above 100 µM; in [6], above 100 µM. Besides, the TGI in [7], in [8], in [9] and in assay [10] was above 100 µM throughout.
With `CCOC(=O)CC1(c2cccc3ccccc23)OC(=O)c2ccccc21` (stereo not given), the TGI in [1] was above 100 µM; in assay [2] it was 75.8 µM; in [3] it was 65.9 µM; in assay [4], 79.8 µM; in [5], above 100 µM; in assay [6], above 100 µM. Moreover, the TGI in assay [7], in assay [8], in assay [9] and in [10] was above 100 µM throughout.
With `O=C1OC(=O)c2cc(S(=O)(=O)c3ccc4c(c3)C(=O)OC4=O)ccc21`, the TGI in [1], in assay [2], in assay [3], in assay [4], in assay [5] and in [6] was above 100 µM each time. Moreover, the TGI in [7], in assay [8], in [9] and in [10] was above 100 µM throughout.
In the case of `Cc1cn([C@@H]2O[C@H](CO[Si](C)(C)C(C)(C)C)[C@]3(O[C@H]3C(=O)NN)[C@H]2O[Si](C)(C)C(C)(C)C)c(=O)[nH]c1=O`, the TGI in assay [1] amounted to 36.2 µM; in [2], 22.9 µM; in [3], 27.7 µM; in [4] it was 5.47 µM; in assay [5], 21.3 µM; in assay [6], 15.6 µM. For the same compound, the TGI in assay [7] turned out to be 17.4 µM; in assay [8], 26.9 µM; in [9] it was 16.6 µM; in assay [10] it was 7.79 µM.
With `CC(C)=CCC/C(C)=C/CC/C(C)=C/CC/C(=C/CC/C(C)=C\CC/C(C)=C/CC/C(C)=C/CC/C(C)=C/Cc1cc(O)ccc1O)CO`, the TGI in assay [1] is 40.7 µM; in [2], 12.7 µM; in [3] it was 21.4 µM; in assay [4], 6.26 µM; in assay [5], above 91.5 µM; in assay [6], 34.9 µM. The TGI in assay [7] came to 11.5 µM; in [8], 19.5 µM; in [9] it was 22.6 µM; in assay [10], 18.9 µM.
Consider `COc1ccc(N2C(=O)C3c4[nH]c5ccc(F)cc5c4C4CCC(c5ccccc5)CC4C3C2=O)cc1` (stereo not given), for which the TGI was 49.5 µM in [1]; 31.6 µM in [2]; 55.5 µM in assay [3]; 39.1 µM in assay [4]; 47.8 µM in assay [5]; 74.1 µM in [6]. Besides, the TGI in assay [7] was 59.6 µM; in assay [8], 70.1 µM; in assay [9], above 100 µM; in assay [10] it was above 100 µM.
